Literature values in article PMC3845828 (Clinical cancer research : an official journal of the …, 2012).

Key:
HMGB-1 binding to RAGE = settings: in vitro; ref [8]
cancer cells = settings: pretreatment of cancer cells in vitro, experimental in vivo model; ref [8]
RAGE / S100P = settings: ref [15]

HMGB-1-derived peptide: peptide consisting of residues 150–183 of HMGB-1 (end of the B-box and its linker to the acidic tail) (KLKEKYEKDIAAYRAKGKPDAAKKGVVKAEKSKK; UniProt P09429 150-183, looked up, fragment)
competition with HMGB-1 binding to RAGE (HMGB-1 binding to RAGE): successfully compete with HMGB-1 binding to RAGE
migration and metastasis of cancer cells pretreated with peptide (cancer cells): successfully blocked their subsequent migration and their metastasis
binding and activation of RAGE by S100P (RAGE / S100P): blocked the binding and activation of RAGE by S100P
